Measured values as given in patent EP3981864A1, “DETERGENT COMPOSITION” (priority 2020, dated 2022).

Columns and labels:
[1] = test system: Streptomyces avermitilis αDOX (SEQ ID NO: 13), fatty acid alpha-dioxygenase, Q82M86, N-terminal His-tag variant SEQ ID NO: 273 (comparative); assay: Alpha-dioxygenase activity assay (oxygen consumption, TON); format: biochemical; details: fatty acid 100 µM, enzyme 6 ppm, 50 mM HEPES pH 9.0, 37°C; initial rate of oxygen consumption / enzyme concentration
From the text: (§1) Streptomyces avermitilis αDOX (SEQ ID NO: 13) is a fatty acid alpha-dioxygenase that converts fatty acids into the corresponding 2-hydroperoxy fatty acids and is included as a comparative example of the present invention. A codon optimized gene (SEQ ID NO: 272) encoding for an alpha-dioxygenase variant (SEQ ID NO: 273), including an N-terminal amino acid sequence containing a His-tag was designed and synthesized by Genscript. After gene synthesis, the protein was expressed and purified. In brief, the complete synthetic gene sequence was subcloned into a pET30a vector using the NdeI/HindIII cloning sites. For heterologous expression, Escherichia coli BL21 (DE3) cells were transformed with the recombinant plasmid and a single colony was inoculated into LB medium containing kanamycin (50 mg/L). A pre-starter culture was then inoculated into flasks containing Magic Media (Thermo Fisher, Catalog # K6803) supplemented with kanamycin (50 mg/L) and incubated at 16 °C for 72 h. At an OD600nm = 0.5 - 1.0, 5-aminolevulinic acid (final concentration 0.5 mM) was added. Cells were harvested by centrifugation at 5000 rpm and 4°C and the pellet was lysed using a bacterial cell lysis buffer (B-PER - Themo Fisher, Waltham, MA). After centrifugation, the supernatant was collected, and the protein was purified by one-step purification using HisPur™ Ni-NTA Spin Columns (Thermo Scientific, Catalog # 88226) and standard protocols known in the art. […]
(§2) Reactions with alpha-dioxygenases were performed as follows. […] The reaction was incubated for up to 10 minutes at 37°C with 200 rpm agitation and the conversion was monitored using an oxygen sensor. The TON (in s-1) were calculated as the ratio between the initial rate of oxygen consumption (in µM/s) and the concentration of enzyme (in µM). […]

[2] = biological target: T1, Pisum sativum αDOX (SEQ ID NO: 4), fatty acid alpha-dioxygenase, Q5GQ66, N-terminal His-tag variant SEQ ID NO: 255 (Pisum sativum, UniProt Q5GQ66); assay: as above; format: biochemical; details: fatty acid 100 µM, enzyme 6 ppm, 50 mM HEPES pH 9.0, 37°C; initial rate of oxygen consumption / enzyme concentration
T1 construct: made in house; host or cells: Escherichia coli BL21 (DE3), pET30a
T1 sequence (Q5GQ66 1-643): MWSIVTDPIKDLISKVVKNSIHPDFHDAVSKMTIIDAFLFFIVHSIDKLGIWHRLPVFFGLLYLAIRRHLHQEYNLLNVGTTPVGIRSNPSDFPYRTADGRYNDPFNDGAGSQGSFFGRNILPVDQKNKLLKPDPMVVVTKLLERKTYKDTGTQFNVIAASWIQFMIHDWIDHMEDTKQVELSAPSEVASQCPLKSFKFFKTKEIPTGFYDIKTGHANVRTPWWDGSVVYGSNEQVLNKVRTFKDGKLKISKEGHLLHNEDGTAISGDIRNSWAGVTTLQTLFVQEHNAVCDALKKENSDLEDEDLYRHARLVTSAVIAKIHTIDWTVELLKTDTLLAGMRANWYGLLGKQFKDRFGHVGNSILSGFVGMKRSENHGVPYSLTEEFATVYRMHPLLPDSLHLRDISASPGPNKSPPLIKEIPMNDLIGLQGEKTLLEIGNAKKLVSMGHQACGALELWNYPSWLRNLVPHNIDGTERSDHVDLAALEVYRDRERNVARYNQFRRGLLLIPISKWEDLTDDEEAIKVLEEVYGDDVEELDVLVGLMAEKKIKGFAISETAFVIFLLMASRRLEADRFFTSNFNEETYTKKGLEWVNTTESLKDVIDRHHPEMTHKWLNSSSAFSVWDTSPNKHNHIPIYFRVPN
From the text: as §1, with “Pisum sativum” for “Streptomyces avermitilis”, “4)” for “13)”, “an” for “a comparative”, “254)” for “272)”, “255),” for “273),”, “art. The protein was concentrated using a 10 kDa MW cutoff Amicon Ultra centrifugal filter unit (Millipore Sigma, Catalog# UFC901024), followed by desalting using a disposable PD-10 desalting column (GE Healthcare Life Sciences, Catalog# 17085101) and a buffer containing 50 mM Tris-HCl, 500 mM NaCl, and 10% Glycerol at pH 8.0.” for “art.”
as §2

SMILES: CCCCCCCC/C=C\CCCCCCCC(=O)O [Oleic Acid]
- Oleic Acid, TON [1]: 0.00 s⁻¹
- Oleic Acid, TON [2]: 1.40 s⁻¹

SMILES: CCCCCCCCCCCCCCCCCC(=O)O [Stearic Acid]
- Stearic Acid, TON [1]: 0.10 s⁻¹
- Stearic Acid, TON [2]: 0.80 s⁻¹

SMILES: CCCCCCCCCCCCCCCC(=O)O [Palmitic Acid]
- Palmitic Acid, TON [1]: 0.00 s⁻¹
- Palmitic Acid, TON [2]: 1.92 s⁻¹
